Structures are written as SMILES.

Holding throughout (experiment): biochemical
Common to all, as to parameters: KINOMEscan active-site competition binding, percent of control (100 = no competition)
Common to all, as to conditions: competition binding, percent control

Assay [1] deals with T1, ABL1(Q252H)-phosphorylated (Homo sapiens, UniProt P00519, Q252H).
T1 construct: phosphorylated

Assay [2] deals with CAMK1 (Homo sapiens, UniProt Q14012).
For assay [3], the target named is T2, CDK4-cyclinD1 (Homo sapiens, UniProt P11802).
T2 construct: cyclinD1

Assay [4] deals with DDR1 (Homo sapiens, UniProt Q08345).
In assay [5] the target is T3, DMPK2 (Homo sapiens, UniProt Q6DT37).
T3 construct: gene CDC42BPG

Assay [6] deals with EGFR(L858R,T790M) (Homo sapiens, UniProt P00533, L858R/T790M).
The target in assay [7] is T4, FAK (Homo sapiens, UniProt Q05397).
T4 construct: gene PTK2

Assay [8] concerns the target FGR (Homo sapiens, UniProt P09769).
Assay [9] addresses T5, GCN2(Kin.Dom.2,S808G) (Homo sapiens, UniProt Q9P2K8, S808G).
T5 construct: gene EIF2AK4; Kin.Dom.2

Assay [10] deals with MET (Homo sapiens, UniProt P08581).
In assay [11] the target is T6, MLK3 (Homo sapiens, UniProt Q16584).
T6 construct: gene MAP3K11

The target of assay [12] is PAK6 (Homo sapiens, UniProt Q9NQU5).
Assay [13] deals with T7, PCTK2 (Homo sapiens, UniProt Q00537).
T7 construct: gene CDK17

In assay [14] the target is T8, PIP5K2C (Homo sapiens, UniProt Q8TBX8).
T8 construct: gene PIP4K2C

Assay [15] deals with T9, RIPK5 (Homo sapiens, UniProt Q6XUX3).
T9 construct: gene DSTYK

Assay [16] has as its target SBK1 (Homo sapiens, UniProt Q52WX2).
Assay [17] deals with T10, SNARK (Homo sapiens, UniProt Q9H093).
T10 construct: gene NUAK2

In assay [18] the target is TEC (Homo sapiens, UniProt P42680).
Assay [19] addresses TIE1 (Homo sapiens, UniProt P35590).
The target in assay [20] is T11, TRKC (Homo sapiens, UniProt Q16288).
T11 construct: gene NTRK3

For assay [21], the target named is TYRO3 (Homo sapiens, UniProt Q06418).
The target of assay [22] is T12, YANK2 (Homo sapiens, UniProt Q9NY57).
T12 construct: gene STK32B

EGFR(L858R,T790M), sequence (P00533 whole entry T790M/L858R): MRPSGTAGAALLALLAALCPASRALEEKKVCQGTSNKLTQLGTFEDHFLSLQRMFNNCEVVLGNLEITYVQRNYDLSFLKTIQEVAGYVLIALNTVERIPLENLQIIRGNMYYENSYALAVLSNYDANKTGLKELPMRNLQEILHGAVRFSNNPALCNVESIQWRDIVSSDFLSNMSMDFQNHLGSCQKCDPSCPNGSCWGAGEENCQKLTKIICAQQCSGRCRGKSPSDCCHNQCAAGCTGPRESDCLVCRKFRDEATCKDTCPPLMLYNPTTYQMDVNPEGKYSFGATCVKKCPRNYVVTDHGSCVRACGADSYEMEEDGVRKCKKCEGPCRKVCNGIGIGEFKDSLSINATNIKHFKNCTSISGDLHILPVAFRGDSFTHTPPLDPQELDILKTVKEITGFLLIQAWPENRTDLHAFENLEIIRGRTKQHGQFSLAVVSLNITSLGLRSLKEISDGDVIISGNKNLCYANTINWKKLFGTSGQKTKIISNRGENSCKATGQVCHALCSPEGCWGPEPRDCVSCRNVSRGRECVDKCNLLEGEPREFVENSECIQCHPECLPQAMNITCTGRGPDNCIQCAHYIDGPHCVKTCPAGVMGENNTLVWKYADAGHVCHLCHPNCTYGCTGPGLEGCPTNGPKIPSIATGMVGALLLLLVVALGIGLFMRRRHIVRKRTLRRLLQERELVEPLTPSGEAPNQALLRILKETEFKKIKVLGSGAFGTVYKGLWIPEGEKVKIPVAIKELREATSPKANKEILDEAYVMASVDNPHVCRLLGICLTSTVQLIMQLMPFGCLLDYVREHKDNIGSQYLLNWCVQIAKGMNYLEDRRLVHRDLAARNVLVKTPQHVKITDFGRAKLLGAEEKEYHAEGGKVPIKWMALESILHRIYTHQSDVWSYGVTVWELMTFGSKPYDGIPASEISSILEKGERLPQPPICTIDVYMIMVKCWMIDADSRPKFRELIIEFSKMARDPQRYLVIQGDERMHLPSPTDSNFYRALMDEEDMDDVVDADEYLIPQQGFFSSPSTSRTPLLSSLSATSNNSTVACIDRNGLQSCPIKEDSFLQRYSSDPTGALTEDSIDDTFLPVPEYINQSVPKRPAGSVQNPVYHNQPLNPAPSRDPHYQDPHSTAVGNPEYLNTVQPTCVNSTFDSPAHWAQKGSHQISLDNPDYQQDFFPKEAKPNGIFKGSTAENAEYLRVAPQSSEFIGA
SBK1, sequence (Q52WX2 whole entry): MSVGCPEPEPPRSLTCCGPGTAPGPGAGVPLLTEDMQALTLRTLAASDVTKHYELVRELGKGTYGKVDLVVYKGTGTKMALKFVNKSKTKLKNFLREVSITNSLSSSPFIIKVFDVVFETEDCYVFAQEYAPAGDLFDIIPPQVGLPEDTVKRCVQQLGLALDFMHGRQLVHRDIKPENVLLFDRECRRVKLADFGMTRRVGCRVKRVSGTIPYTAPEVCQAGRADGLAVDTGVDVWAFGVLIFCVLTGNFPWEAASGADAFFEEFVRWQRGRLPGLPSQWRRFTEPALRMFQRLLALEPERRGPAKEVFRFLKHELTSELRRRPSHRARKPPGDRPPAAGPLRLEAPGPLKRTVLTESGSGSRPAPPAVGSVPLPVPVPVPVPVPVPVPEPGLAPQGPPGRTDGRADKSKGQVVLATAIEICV
T9 sequence (Q6XUX3 whole entry): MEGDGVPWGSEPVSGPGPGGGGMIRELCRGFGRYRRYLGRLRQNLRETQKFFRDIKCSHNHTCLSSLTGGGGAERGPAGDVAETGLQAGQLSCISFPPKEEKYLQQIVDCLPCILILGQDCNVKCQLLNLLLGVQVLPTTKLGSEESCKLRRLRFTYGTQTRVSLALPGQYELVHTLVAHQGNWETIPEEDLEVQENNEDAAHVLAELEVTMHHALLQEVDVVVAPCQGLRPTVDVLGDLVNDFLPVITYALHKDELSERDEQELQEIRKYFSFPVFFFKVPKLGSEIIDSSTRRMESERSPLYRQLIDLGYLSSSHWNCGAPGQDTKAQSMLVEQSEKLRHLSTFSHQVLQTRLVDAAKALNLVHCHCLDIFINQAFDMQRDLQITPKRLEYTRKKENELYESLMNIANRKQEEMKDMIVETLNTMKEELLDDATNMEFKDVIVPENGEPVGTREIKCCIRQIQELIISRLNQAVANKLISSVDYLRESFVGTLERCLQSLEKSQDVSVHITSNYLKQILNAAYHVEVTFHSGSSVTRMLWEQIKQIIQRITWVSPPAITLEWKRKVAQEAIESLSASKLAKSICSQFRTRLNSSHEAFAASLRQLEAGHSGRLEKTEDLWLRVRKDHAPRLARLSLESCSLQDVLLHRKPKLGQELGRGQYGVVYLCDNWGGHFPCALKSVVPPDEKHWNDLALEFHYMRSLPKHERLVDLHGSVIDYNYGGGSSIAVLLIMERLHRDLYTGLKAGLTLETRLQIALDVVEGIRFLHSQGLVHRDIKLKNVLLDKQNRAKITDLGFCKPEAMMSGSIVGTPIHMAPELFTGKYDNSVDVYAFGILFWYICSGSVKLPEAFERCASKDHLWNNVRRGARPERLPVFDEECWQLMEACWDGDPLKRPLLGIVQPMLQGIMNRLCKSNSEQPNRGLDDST
T11 sequence (Q16288 whole entry): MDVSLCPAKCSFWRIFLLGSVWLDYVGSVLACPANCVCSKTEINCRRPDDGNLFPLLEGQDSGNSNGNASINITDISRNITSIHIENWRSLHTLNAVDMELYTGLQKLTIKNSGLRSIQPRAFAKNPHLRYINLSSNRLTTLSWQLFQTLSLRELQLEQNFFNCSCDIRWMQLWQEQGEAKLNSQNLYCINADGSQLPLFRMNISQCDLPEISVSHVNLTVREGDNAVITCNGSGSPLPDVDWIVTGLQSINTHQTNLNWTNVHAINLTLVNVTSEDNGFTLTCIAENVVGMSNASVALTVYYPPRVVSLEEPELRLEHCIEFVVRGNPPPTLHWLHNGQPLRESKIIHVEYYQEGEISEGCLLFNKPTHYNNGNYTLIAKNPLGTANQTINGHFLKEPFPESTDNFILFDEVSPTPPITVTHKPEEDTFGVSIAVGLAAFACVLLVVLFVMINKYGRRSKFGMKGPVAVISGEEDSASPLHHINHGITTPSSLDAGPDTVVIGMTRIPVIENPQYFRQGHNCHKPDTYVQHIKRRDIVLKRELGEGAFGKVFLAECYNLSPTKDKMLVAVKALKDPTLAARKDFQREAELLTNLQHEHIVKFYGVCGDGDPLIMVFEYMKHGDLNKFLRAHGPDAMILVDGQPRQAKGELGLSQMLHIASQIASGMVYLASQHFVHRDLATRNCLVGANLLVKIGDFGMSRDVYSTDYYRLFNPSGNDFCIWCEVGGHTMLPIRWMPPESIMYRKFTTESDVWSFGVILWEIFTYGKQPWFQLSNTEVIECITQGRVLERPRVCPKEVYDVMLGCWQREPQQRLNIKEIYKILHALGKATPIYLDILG
CAMK1, sequence (Q14012 whole entry): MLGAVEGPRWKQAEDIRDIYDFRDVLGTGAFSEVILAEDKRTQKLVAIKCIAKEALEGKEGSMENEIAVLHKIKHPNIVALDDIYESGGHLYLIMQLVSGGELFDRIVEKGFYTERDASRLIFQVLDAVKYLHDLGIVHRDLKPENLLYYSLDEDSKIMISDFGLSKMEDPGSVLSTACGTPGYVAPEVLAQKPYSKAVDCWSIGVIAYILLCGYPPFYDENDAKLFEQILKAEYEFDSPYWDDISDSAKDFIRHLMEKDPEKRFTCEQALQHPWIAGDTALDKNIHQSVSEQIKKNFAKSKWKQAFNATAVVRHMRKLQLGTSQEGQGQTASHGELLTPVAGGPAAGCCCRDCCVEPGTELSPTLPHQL
T10 sequence (Q9H093 whole entry): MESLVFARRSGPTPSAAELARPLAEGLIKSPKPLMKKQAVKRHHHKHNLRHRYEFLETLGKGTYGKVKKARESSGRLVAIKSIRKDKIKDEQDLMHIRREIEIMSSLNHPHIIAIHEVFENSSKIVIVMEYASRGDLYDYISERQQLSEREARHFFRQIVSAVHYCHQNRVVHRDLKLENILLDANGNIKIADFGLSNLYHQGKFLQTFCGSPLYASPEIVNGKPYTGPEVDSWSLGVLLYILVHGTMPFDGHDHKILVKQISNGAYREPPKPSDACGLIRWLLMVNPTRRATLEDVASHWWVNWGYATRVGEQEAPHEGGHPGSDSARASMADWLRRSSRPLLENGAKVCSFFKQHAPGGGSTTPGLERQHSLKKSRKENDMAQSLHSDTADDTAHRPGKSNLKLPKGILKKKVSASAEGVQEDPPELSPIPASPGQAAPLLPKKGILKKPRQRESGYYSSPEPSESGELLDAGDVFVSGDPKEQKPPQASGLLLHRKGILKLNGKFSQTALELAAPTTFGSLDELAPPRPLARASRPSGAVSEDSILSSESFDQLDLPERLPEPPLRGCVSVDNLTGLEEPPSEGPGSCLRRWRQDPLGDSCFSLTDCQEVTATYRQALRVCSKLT
T7 sequence (Q00537 whole entry): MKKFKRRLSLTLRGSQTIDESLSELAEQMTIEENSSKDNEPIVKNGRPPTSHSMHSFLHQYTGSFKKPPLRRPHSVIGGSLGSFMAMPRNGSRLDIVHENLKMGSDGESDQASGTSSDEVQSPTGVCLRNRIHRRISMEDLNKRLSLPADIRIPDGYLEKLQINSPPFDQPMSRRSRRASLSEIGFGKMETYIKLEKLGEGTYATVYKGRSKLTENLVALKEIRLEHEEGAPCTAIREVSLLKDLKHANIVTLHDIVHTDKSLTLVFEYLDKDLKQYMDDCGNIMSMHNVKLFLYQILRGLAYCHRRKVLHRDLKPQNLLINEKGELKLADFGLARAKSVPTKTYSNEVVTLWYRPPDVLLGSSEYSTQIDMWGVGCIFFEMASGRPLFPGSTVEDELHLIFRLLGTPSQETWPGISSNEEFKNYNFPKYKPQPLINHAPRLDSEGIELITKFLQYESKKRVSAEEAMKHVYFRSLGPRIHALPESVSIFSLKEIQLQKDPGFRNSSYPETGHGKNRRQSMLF

Turning to `COc1ccc(-c2cnccc2-c2cnc(NC(=O)C(C)C)s2)c(C(F)(F)F)c1` [CRT0105446, N-{5-[3-(4-Methoxy-2-trifluoromethyl-phenyl)-pyridin-4-yl]-hiazol-2-yl}-isobutyramide], the remaining binding at 10 µM worked out at 81% in assay [1]; 62% in assay [2]; 20% in assay [3]; 83% in [4]; 93% in assay [5]; 91% in [6]. Besides, the remaining binding at 10 µM in assay [7] is 100%; in [8] it was 93%; in assay [9] it was 92%; in [10], 80%; in [11], 100%; in assay [12], 93%. In addition, the remaining binding at 10 µM stood at 17% in [13]; 3% in assay [14]; 86% in assay [15]; 100% in assay [16]; 84% in assay [17]; 100% in [18]. In addition, the remaining binding at 10 µM in [19] stood at 87%; in [20], 100%; in assay [21] it was 100%; in [22], 100%.
For the compound `Cc1ccc(-c2cnccc2-c2cnc(Nc3ccc(O)cc3)s2)c(Cl)c1` [CRT0105950, 4-{5-[3-(2-Chloro-4-methyl-phenyl)-pyridin-4-yl]-thiazol-2-ylamino}-phenol], the remaining binding at 10 µM in assay [1] was 74%; in assay [2] it was 9.4%; in assay [3], 3.7%; in assay [4], 0.1%; in assay [5], 71%; in assay [6], 89%. Also, the remaining binding at 10 µM in assay [7] came to 33%; in assay [8] it was 32%; in assay [9], 94%; in assay [10] it was 16%; in assay [11], 43%; in assay [12] it was 38%. Moreover, the remaining binding at 10 µM in assay [13] came out at 52%; in assay [14], 2.3%; in assay [15] it was 45%; in [16], 79%; in [17], 31%; in assay [18], 100%. Also, the remaining binding at 10 µM was found to be 16% in assay [19], 0.6% in [20], 51% in assay [21] and 100% in [22].

The values are drawn from article PMC4770715, “LIM kinase inhibitors disrupt mitotic microtubule organization and impair tumor cell proliferation” (Oncotarget, 2015).
